Tested on: Human giant cell lung carcinoma cells Lu65
Assay: Biological distribution of biotinated αSQAP in tumor of tumor-bearing nude mice (Alexa 488 avidin staining of tumor slices)
Type: in vivo, KSN nude mice
Details: tail vein, one hour after administration, FIG. 2
Protocol: Human giant cell lung carcinoma cells Lu65 were transplanted into six-week-old male KSN nude mice in a number of 1×10^6 for each of the mice, and the mice were bred for 14 days to form a tumor mass of about 100-200 mm^3 volume in each of the mice.
Thereafter, three mice were assigned to each of the following four groups (1) to (4):
(1) a control group wherein physiological saline was administered,
(2) a high dose group wherein biotinated αSQAP was administered in a dose of 50 mg/kg,
(3) a middle dose group wherein biotinated αSQAP was administered in a dose of 5 mg/kg, and […]
The slice was observed by a fluorescence microscope, and the slice was made into an image. Data on the image were input to a computer, and then positive signals of the image were quantified according to image analysis software.
Specifically, binary image processing based on Photoshop was performed to estimate a tumor region emitting fluorescence through the labeling material Alexa 488 in the slice. Thereafter, a portion (fraction) containing tumor tissues was selected from the visual field, and the number of pixels of the Alexa 488 positive region (black region) and the entire region were counted and the ratio of the positive region was calculated according to the formula: […]

What does the source list for `O=C(CCCC[C@@H]1SC[C@@H]2NC(=O)N[C@@H]21)NCCC(=O)OCCCO[C@H]1O[C@H](CS(=O)(=O)[O-])[C@@H](O)[C@H](O)[C@H]1O.O=C(CCCC[C@@H]1SC[C@@H]2NC(=O)N[C@@H]21)NCCC(=O)OCCCO[C@H]1O[C@H](CS(=O)(=O)[O-])[C@@H](O)[C@H](O)[C@H]1O.[Ca+2]` [biotinated αSQAP, 3-O-(6-sulfo-α-D-quinovopyranosyl)-1-O-(biotinyl-β-alanyl)-propane-1,3-diol calcium salt]?
amount in tumor (50 mg/kg): large; staining of tumor tissues (Alexa 488 positive region) (high dose group 50 mg/kg): intensely dyed

— patent publication US20100202971A1, “COMPOUND HAVING TUMOR-RESIDENT PROPERTY” (priority 2009, published 2010)
